Test results: patent US5070210A, “Novel ketenimines as intermediates for insecticides” (ICI Americas Inc., priority 1990, dated 1991)

Columns and labels:
Assay type in all cases: in vivo
[1] = test system: Maize weevil [Sitophilus Zeamais (Motschulsky)]; assay: Maize weevil insecticidal test; settings: adult weevils, percent in solution; 48 hours
Description: The compounds in Tables 1 and 2 above were tested for insecticidal activity using the following testing procedures. LC50 values, based on the results of these tests and calculated according to dosage-mortality curves, are expressed in Table 3.
Maize weevil [Sitophilus Zeamais (Motschulsky)]:
Test compounds were diluted in a 50:50 acetone:water solution. Four corn seeds [Zea mays (L.)] which had been immersed in test solutions for 2-3 seconds and allowed to dry were placed in containers together with 10 adult weevils. The containers were covered and kept at a temperature of about 25° C. Mortality was recorded after 48 hours. Test concentrations ranged from 0.01% down to that at which 50% mortalilty occurred. The LC50 values are expressed below in Table 3 under the heading "MW" in terms of percent of the test compound in solution.

[2] = test system: Housefly [Musca domestica]; assay: Housefly insecticidal test; settings: μg per 25 female flies; mortality after 48 hours
Method in brief: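 LC50 (μg compound per 25 female flies) derives from dosage-mortality curves of 48 h kill. Flies, females 1-2 days old, were held 25 per cage over a dish coated with dried acetone deposit, starting at 100 μg per cage and descending.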

[3] = test system: Cabbage Looper [Trichoplusia ni (Hubner)]; assay: Cabbage looper insecticidal test; settings: second-instar larvae, percent in solution; 3-5 days
Method in brief: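 Squash cotyledons dipped in test solution (acetone-water 50-50, ≤0.1%), dried, offered to 5 second-instar larvae; mortality after 3-5 days gives LC50.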

[4] = test system: Tobacco Budworm [Heliothis virescens (Fabricius)] eggs; assay: Tobacco budworm egg test; settings: 2-day old eggs, percent in solution
Method in brief: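 Step 1: dip 2-day old egg patches in acetone test solutions (top concentration 0.1%). Step 2: hold in dishes with rearing medium at 78° F. Step 3: record mortality after control hatch and feeding.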

Compound | LC50, MW [1] [%] | LC50, HF [2] [µg] | LC50, CL [3] [%] | LC50, TBW, E (TBW-E) [4] [%]
Clc1ccc(N=C(OCc2cccc(Oc3ccccc3)c2)C2CCC2)cc1 [Compound 8] | > 0.01 | 50 | 0.01 | > 0.1
CC(C)(C)C(=Nc1cccc(C(F)(F)F)c1)OCc1cccc(Oc2ccccc2)c1 [Compound 88] | > 0.01 | > 100 | 0.018 | > 0.1
Fc1ccc(Oc2cccc(COC(=Nc3ccc(F)c(Cl)c3)C3CC3)c2)cc1 [Compound 116] | > 0.01 | 15 | 0.00025 | 0.05
CCc1ccc(N=C(OCc2cccc(Oc3ccccc3)c2)C(C)(C)C)cc1 [Compound 163] | > 0.01 | > 100 | 0.004 | > 0.1
CC(C)C(=Nc1ccc(F)c(Cl)c1)OCc1cccc(Oc2cccc(Cl)c2)c1 [Compound 203] | > 0.01 | 43 | 0.0025 | 0.06
CC(C)C(=Nc1cc(F)c(Cl)cc1Cl)OCc1ccc(F)c(Oc2ccc(F)cc2)c1 [Compound 292] | > 0.01 | 41 | 0.00075 | 0.05
Fc1ccc(Oc2cccc(COC(=Nc3cccc(C(F)(F)F)c3)C3CC3)c2)cc1 [Compound 294] | > 0.01 | > 100 | 0.017 | > 0.1
CC(C)C(=Nc1ccc(F)c(Br)c1)OCc1ccc(F)c(Oc2ccccc2)c1 [Compound 299] | > 0.01 | 8 | 0.0005 | 0.017
CC(C)C(=Nc1ccc(C(C)(C)C)cc1)OCc1ccc(F)c(Oc2ccc(Cl)cc2)c1 [Compound 301] | > 0.01 | > 100 | 0.008 | > 0.1
CC(C)C(=Nc1cccc([N+](=O)[O-])c1)OCc1cccc(Oc2ccccc2)c1 [Compound 302] | > 0.01 | 15 | 0.003 | > 0.1
CC(C)C(=Nc1c(F)c(F)cc(F)c1F)OCc1cccc(Oc2ccc(F)cc2)c1 [Compound 304] | > 0.01 | > 100 | 0.0024 | > 0.1
CC(Br)C(=Nc1ccc2c(c1)OCO2)OCc1cccc(Oc2ccccc2)c1 (stereo not drawn) [Compound 306] | > 0.01 | > 100 | 0.005 | 0.1
CC(C)C(=Nc1ccc([N+](=O)[O-])c(C(F)(F)F)c1)OCc1cccc(Oc2ccccc2)c1 [Compound 307] | > 0.01 | > 100 | 0.002 | 0.08
CC(C)C(=Nc1ccc(F)c(I)c1)OCc1ccc(F)c(Oc2ccccc2)c1 [Compound 334] | > 0.01 | 9 | 0.0007 | 0.013
CC(C)c1ccc(N=C(OCc2cccc(Oc3ccccc3)c2)C2CCC2)cc1 [Compound 339] | > 0.01 | > 100 | 0.017 | > 0.1
CC(C)C(=Nc1ccc(Cl)c(C(F)(F)F)c1)OCc1ccc(F)c(Oc2ccc(F)cc2)c1 [Compound 340] | 0.0069 | 34 | 0.00037 | 0.04
CC(C)C(=Nc1cccc(Cl)c1)OCc1ccc(F)c(Oc2ccc(F)cc2)c1 [Compound 341] | > 0.01 | 4 | 0.0005 | 0.023

Compound | LC50, MW [1] [%] | LC50, HF [2] [µg] | LC50, CL [3] [%] | LC50, TBW, E (TBW-E) [4] [%]
CC(C)C(=Nc1cccc(F)c1)OCc1ccc(F)c(Oc2ccc(F)cc2)c1 [Compound 342] | > 0.01 | 4.1 | 0.0008 | 0.04
C=CCOc1cccc(COC(=Nc2cccc(C(F)(F)F)c2)C(C)C)c1 [Compound 480] | – | > 100 | 0.01 | > 0.1
C=CCOc1cccc(COC(=Nc2ccc(Cl)c(Cl)c2)C(C)C)c1 [Compound 481] | – | > 100 | 0.015 | > 0.1
CC(C)C(=Nc1ccc(Cl)cc1)OCc1coc(Cc2ccccc2)c1 [Compound 484] | – | 16 | 0.003 | > 0.1
CC(C)C(=Nc1ccc(F)c(F)c1)OCc1coc(Cc2ccccc2)c1 [Compound 485] | – | 24 | > 0.1 | > 0.1
CC(C)C(=Nc1ccc(F)c(Cl)c1)OCc1ccc(OCc2ccc(F)cc2)cc1 [Compound 487] | – | > 100 | 0.023 | > 0.1
CC(C)C(=Nc1cccc(C(F)(F)F)c1)OCc1ccc(OCc2ccc(F)cc2)cc1 [Compound 488] | – | > 100 | 0.025 | > 0.1
CC(C)C(=Nc1cccc(C(F)(F)F)c1)OCc1cccc(OCc2ccc(F)cc2)c1 [Compound 489] | – | > 100 | < 0.1 | > 0.1
CC(C)C(=Nc1ccc(F)cc1)OCc1coc(Cc2ccccc2)c1 [Compound 491] | – | 9 | 0.0028 | 0.08
CC(C)C(=Nc1cccc(C(F)(F)F)c1)OCc1cccc(Oc2ccc(Br)cc2)n1 [Compound 493] | – | 36 | 0.0008 | 0.05
Cc1ccc(Oc2cccc(COC(=Nc3ccc(F)c(Cl)c3)C(C)C)n2)cc1 [Compound 494] | – | 34 | 0.003 | > 0.1
Cc1ccc(Oc2cccc(COC(=Nc3cccc(C(F)(F)F)c3)C(C)C)n2)cc1 [Compound 495] | – | > 100 | 0.012 | 0.1
CC(C)C(=Nc1ccc(C(C)(C)C)cc1)OCc1cccc(Oc2ccccc2)n1 [Compound 496] | – | > 100 | 0.006 | > 0.1
CC(C)C(=Nc1ccc(C(C)(C)C)cc1)OCc1cccc(Oc2ccc(Cl)cc2)n1 [Compound 497] | – | > 100 | 0.0075 | > 0.1
CC(C)C(=Nc1ccc(F)c(Cl)c1)OC(C)c1cccc(Oc2ccccc2)n1 (stereo not drawn) [Compound 498] | – | 49 | 0.002 | > 0.1
CC(C)C(=Nc1cccc(C(F)(F)F)c1)OC(C)c1cccc(Oc2ccccc2)n1 (stereo not drawn) [Compound 499] | – | 63 | 0.0024 | > 0.1
COCc1c(F)c(F)c(COC(=Nc2ccc3c(c2)OCO3)C(C)C)c(F)c1F [Compound 501] | – | 20 | 0.00045 | > 0.1
